In patent publication US12213978B2, “Madrasin-derivative compounds, composition and uses thereof for treating cancer” (INSTITUT GUSTAVE ROUSSY, priority 2018, dated 2025):

How the values were obtained:
[1] = system: B16F10 melanoma cells expressing the intron-derived SL8 antigen; assay: T-cell assay: B3Z specific T-cell activation by B16F10 cells expressing the intron-derived SL8 antigen; assay type: cell-based, mouse; settings: for PTP-SL8 presentation (B3Z T-cell activation): O/N
Method: (§1) MCA205 mouse sarcoma cell line is cultured at 37° C. under 5% CO2 in RPMI 1640 medium (Life Technologies) in the presence of 1% glutamine, 1% sodium pyruvate, 1% non-essential amino-acids, 1% penicillin/streptomycin and 10% FBS (Life Technologies). B16F10 mouse melanoma cell line is cultured at 37° C. under 5% CO2 in DMEM medium (Life Technologies) containing 1% glutamine, 1% penicillin/streptomycin and 10% FCS under standard conditions. Stable MCA205-Globin-SL8-intron cell line are cultured under the same condition as MCA205 cell line with additional 500 μg/ml G418 (Life Technologies) for selection. Stable B16F10-Globin-SL8-intron cell line are cultured under the same condition as B16F10 cell line with additional 500 μg/ml G418 (Life Technologies) for selection. The SL8/Kb-specific (B3Z) T-cell reporter hybridoma are cultured at 37° C. under 5% CO2 in RPMI 1640 medium (Life Technologies) in the presence of 1% L-glutamine, 1% penicillin/streptomycin, 50 μM β-mercaptoéthanol and 10% FCS.
(§2) MCA205 and B16F10 mouse cell lines are transfected with the plasmid YFP-Globin-SL8-intron or with the PCDNA3 empty plasmid (negative control) with the transfection reagent jetPRIME (Ozyme) or GeneJuice (Millipore) respectively according to each manufacturer protocol. Twenty-four hours after transfection, cells are treated with different doses of Madrasin (Sigma SML 1409), Madra.HCl (3·HCl) or the different compounds herein cited. Cells are then washed three times with PBS 1× and 5.10^4 tumor cells are co-cultured with 1.10^5 B3Z hybridoma in a 96-well plate. In positive control wells, 4 μg/ml of synthetic peptide SL8 is added. Cells are then incubated overnight at 37° C. with 5% CO2. The plate is centrifuged at 1200 rpm for 5 min, cells are washed twice with PBS 1× and lysed for 5 min at 4° C. under shaking in 0.2% TritonX-100, 0.2% DTT, 0.5M K2HPO4, 0.5M KH2PO4. The lysate is centrifuged at 3000 rpm for 10 min and the supernatant is transferred to a 96-well optiplate (OptiPlaque-96, PerkinElmer). A revelation buffer containing 10 mM MgCl2, 11.2 mM β-mercaptoethanol, 0.0015% IGEPAL® CA-630 and 40 μM 4-Methylumbelliferyl β-D-Galactopyranoside (MUG) in PBS is added and the plate is incubated at room temperature for 3 hours. Finally, the β-galactosidase activity is measured using the FLUOstar OPTIMA (BMG LABTECH Gmbh, 30 Offenburg, Germany). Results are expressed as mean±SEM. *P<0.05, **P<0.01, ***P<0.001 (unpaired student t test).

[2] = system: MCA205 sarcoma cells expressing the intron-derived SL8 antigen; assay: T-cell assay: B3Z specific T-cell activation by MCA205 cells expressing the intron-derived SL8 antigen; assay type: cell-based, mouse; settings: for PTP-SL8 presentation (B3Z T-cell activation): O/N
Method: as §1, §2

[3] = Solubility in water; assay type: physicochemical

With COc1ccc2c(C)nc(Nc3nc(C)c(C)c(=O)[nH]3)nc2c1SCC(NC(C)=O)C(=O)O (stereo not drawn) [EYP102, N-Acetyl-S-(2-((4,5-dimethyl-6-oxo-1,6-dihydropyrimidin-2-yl)amino)-7-methoxy-4-methylquinazolin-8-yl)cysteine] the “PTP-SL8 presentation (B3Z T-cell activation)” value (from here on “PTP-SL8 presentation”) ([1]; B16F10, 20 μM) was “not see any increase” and the “PTP-SL8 presentation” value ([2]; MCA205, 20 μM) was “not see any increase”.

In the case of COc1ccc2c(C)nc(Nc3nc(C)c(C)c(=O)[nH]3)nc2c1 [Madrasin, 2-((7-Methoxy-4-methylquinazolin-2-yl)amino)-5,6-dimethylpyrimidin-4(3H)-one], the “PTPs-dependent antigen presentation (B3Z T-cell activation)” value ([1]; B16F10, 5 μM or 10 μM, dose dependent) is reported as “increase”, the “PTPs-dependent antigen presentation (B3Z T-cell activation)” value ([2]; MCA205, 5 μM or 10 μM, dose dependent) is reported as “increase” and the solubility in water [3] is reported as “insoluble in water”.

For COc1ccc2c(C)nc(Nc3cc(OC)c(OC)c(OC)c3)nc2c1 [EYP188, 7-Methoxy-4-methyl-N-(3,4,5-trimethoxyphenyl)quinazolin-2-amine], the “PTP-SL8 presentation” value ([2]; MCA205, 60 μM) was “increase”.

In the case of COc1ccc2c(C)nc(Nc3ccnc(OC)n3)nc2c1 [EYP190, 7-Methoxy-N-(2-methoxypyrimidin-4-yl)-4-methylquinazolin-2-amine], the “PTP-SL8 presentation” value ([1]; B16F10, 60 μM) is reported as “increase”.

In the case of COc1ccc2c(C)nc(Nc3nc(C)c(C)c(=O)[nH]3)nc2c1SC1OC(COC(C)=O)C(OC(C)=O)C(OC(C)=O)C1OC(C)=O [EYP86, ((1S,2S,4R,5S,6S)-5-Acetoxy-7,8-diacetyl-4-((2-((4,5-dimethyl-6-oxo-1,6-dihydropyrimidin-2-yl)amino)-7-methoxy-4-methylquinazolin-8-yl)thio)-3,7λ^3,8λ^3-trioxabicyclo[4.2.0]octan-2-yl)methyl Acetate], the “PTP-SL8 presentation” value ([2]; MCA205, 50 μM) is reported as “increase”.

With COc1ncc(Nc2ncc3ccccc3n2)cn1 [EYP281, N-(2-Methoxypyrimidin-5-yl)quinazolin-2-amine] the “PTP-SL8 presentation” value ([1]; B16F10, 50 μM) was “increase” and the “PTP-SL8 presentation” value ([2]; MCA205, 50 μM) was “increase”.

In the case of COc1ccc2c(C)nc(Nc3ccc(C)cc3)nc2c1 [EYP156, 7-Methoxy-4-methyl-N-(p-tolyl)quinazolin-2-amine], the “PTP-SL8 presentation” value ([1]; B16F10, 60 μM) is reported as “not see any increase” and the “PTP-SL8 presentation” value ([2]; MCA205, 60 μM) is reported as “not see any increase”.

With Cc1nc(Nc2nc(C)c3ccc(OCCN4CCOCC4)cc3n2)[nH]c(=O)c1C [EYP201, 5,6-Dimethyl-2-((4-methyl-7-(2-morpholinoethoxy)quinazolin-2-yl)amino)pyrimidin-4(3H)-one] the “PTP-SL8 presentation” value ([1]; B16F10, 20 μM) was “increase” and the “PTP-SL8 presentation” value ([2]; MCA205, 20 μM) was “increase”.

In the case of COc1ccc2c(C)nc(Nc3ccc(OC)nc3)nc2c1 [EYP174, 7-Methoxy-N-(6-methoxypyridin-3-yl)-4-methylquinazolin-2-amine], the “PTP-SL8 presentation” value ([1]; B16F10, 20 μM) is reported as “increase”.

For COc1ccc2c(C)nc(Nc3nc(C)c(C)c(=O)[nH]3)nc2c1S[C@H]1O[C@@H](CO)[C@H](O)[C@@H](O)[C@@H]1O [EYP113, 2-((7-Methoxy-4-methyl-8-(((2R,3S,4R,5R,6S)-3,4,5-trihydroxy-6-(hydroxymethyl)tetrahydro-2H-pyran-2-yl)thio)quinazolin-2-yl)amino)-5,6-dimethylpyrimidin-4(3H)-one], the “PTP-SL8 presentation” value ([1]; B16F10, 10 μM) was “not see any increase” and the “PTP-SL8 presentation” value ([2]; MCA205, 10 μM) was “not see any increase”.

In the case of CNc1ccnc(Nc2nc(C)c3ccc(OC)cc3n2)n1 [EYP181, N^2-(7-Methoxy-4-methylquinazolin-2-yl)-N^4-methylpyrimidine-2,4-diamine], the “PTP-SL8 presentation” value ([1]; B16F10, 10 μM) is reported as “increase”.

With COc1ccc2c(C)nc(Nc3cn(C(=O)OC(C)(C)C)c4ccccc34)nc2c1 [EYP177, t-Butyl 3-((7-methoxy-4-methylquinazolin-2-yl)amino)-1H-indole-1-carboxylate] the “PTP-SL8 presentation” value ([1]; B16F10, 60 μM) was “not see any increase” and the “PTP-SL8 presentation” value ([2]; MCA205, 60 μM) was “not see any increase”.

In the case of COc1ccc2c(C)nc(Nc3nccc(OC)n3)nc2c1 [EYP179, 7-Methoxy-N-(4-methoxypyrimidin-2-yl)-4-methylquinazolin-2-amine], the “PTP-SL8 presentation” value ([1]; B16F10, 20 μM) is reported as “increase”.

With COc1ccc2c(C)nc(Nc3c[nH]c4ccccc34)nc2c1 [EYP165, N-(1H-Indol-3-yl)-7-methoxy-4-methylquinazolin-2-amine] the “PTP-SL8 presentation” value ([1]; B16F10, 60 μM) was “increase” and the “PTP-SL8 presentation” value ([2]; MCA205, 60 μM) was “increase”.
